Bounds are passed on as bounds.

Chain of Tyrosine-protein kinase BTK (Homo sapiens, UniProt Q06187, C481S) (Q06187 2-659 C481S limits assumed): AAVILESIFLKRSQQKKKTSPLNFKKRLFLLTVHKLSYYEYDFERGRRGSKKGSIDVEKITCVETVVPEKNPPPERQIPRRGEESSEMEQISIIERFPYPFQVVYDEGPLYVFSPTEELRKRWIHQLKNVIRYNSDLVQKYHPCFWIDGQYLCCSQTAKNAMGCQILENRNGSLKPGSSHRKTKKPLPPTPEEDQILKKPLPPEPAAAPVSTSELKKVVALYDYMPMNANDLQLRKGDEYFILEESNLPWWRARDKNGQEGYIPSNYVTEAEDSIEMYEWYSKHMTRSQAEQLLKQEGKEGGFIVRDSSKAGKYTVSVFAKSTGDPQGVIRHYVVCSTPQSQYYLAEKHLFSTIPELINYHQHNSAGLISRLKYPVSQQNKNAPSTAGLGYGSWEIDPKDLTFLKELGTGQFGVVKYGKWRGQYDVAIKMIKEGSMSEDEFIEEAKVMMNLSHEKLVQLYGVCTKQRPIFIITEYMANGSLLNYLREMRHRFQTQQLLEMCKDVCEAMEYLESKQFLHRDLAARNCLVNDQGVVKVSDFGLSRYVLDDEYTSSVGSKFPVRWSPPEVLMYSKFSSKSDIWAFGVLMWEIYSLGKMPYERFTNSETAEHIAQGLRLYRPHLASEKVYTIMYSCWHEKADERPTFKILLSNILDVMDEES

The target of one test is Tyrosine-protein kinase BTK (Homo sapiens, UniProt Q06187). Put plainly: Microfluidic Off-Chip Mobility Shift Assay Protocol for Potency Assessment Against BTK Enzyme: Briefly, 2.5× stocks of full-length human BTK (08-080) from CarnaBio USA, Inc., Natick, Mass., 1.6×ATP and appropriate kinKDR peptide substrate (FITC-AHA-[…]-NH2; developed in-house) were prepared in kinase reaction buffer consisting of 25 mM MgCl2, 0.015% Brij-35 (30%), 100 mM HEPES, pH 7.5, and 10 mM DTT. 5 uL of enzyme buffer and 7.5 uL of ATP/kinKDR peptide substrate mix were added to Matrix (#115304) 384-well, sterile, polypropylene plates (Thermo Fisher Scientific, Hudson, N.H.) with 125 nL of serially diluted compounds prepared in 100% DMSO, and incubated for 90 min. at 27° C. Following the incubation period, reactions were stopped by adding 60 uL stop buffer consisting of 100 mM HEPES, pH 7.5, 0.015% Brij-35 (30%), 0.277% Coating Reagent #3 (Caliper Life Sciences, Mountain View, Calif.), 5% DMSO. Stopped reactions were monitored at −2 PSI, −3000 V/−700 V in a LabChip 3000 plate reader from Caliper Life Sciences, a PerkinElmer Company (Hopkinton, Mass.), and the activity was measured by off-chip mobility shift assay measuring the charge/mass difference between substrate and product resulting from peptide phosphorilation. IC50 and efficacy were determined by plotting log [Inhibitor] vs. % Activity in GeneData Screener (Basel. Switzerland).
Chain of Tyrosine-protein kinase BTK (Homo sapiens, UniProt Q06187) (Q06187 whole entry): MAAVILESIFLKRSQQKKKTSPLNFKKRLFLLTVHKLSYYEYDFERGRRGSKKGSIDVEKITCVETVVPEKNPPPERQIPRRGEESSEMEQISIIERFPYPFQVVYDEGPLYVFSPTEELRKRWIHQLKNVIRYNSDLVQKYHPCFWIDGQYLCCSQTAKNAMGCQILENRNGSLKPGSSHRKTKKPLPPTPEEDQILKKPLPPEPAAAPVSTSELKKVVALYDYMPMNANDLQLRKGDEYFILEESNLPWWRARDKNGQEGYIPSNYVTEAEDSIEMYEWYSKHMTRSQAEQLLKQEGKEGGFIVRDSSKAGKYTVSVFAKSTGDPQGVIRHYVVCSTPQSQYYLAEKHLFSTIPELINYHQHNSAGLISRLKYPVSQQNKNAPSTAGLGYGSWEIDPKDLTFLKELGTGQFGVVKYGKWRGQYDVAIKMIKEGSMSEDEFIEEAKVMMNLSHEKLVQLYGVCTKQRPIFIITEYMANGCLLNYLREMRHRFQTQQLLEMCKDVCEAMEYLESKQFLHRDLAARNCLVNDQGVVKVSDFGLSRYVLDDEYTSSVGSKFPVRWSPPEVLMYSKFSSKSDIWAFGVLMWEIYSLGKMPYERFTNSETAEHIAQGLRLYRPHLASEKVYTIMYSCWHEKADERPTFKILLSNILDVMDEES
Consider `CC(C)(C)c1noc(C(=O)NCc2ccc(-c3ccnc4[nH]c([C@@H]5C[C@H]5c5ccccc5)nc34)cc2F)n1`, for which the IC50 is > 5000 nM.

Regarding `Cn1cc(-c2nc3c(-c4ccc(CNc5nccc6c5OCCN6C(=O)OC(C)(C)C)c(F)c4)ccnc3[nH]2)cn1`, the IC50 is > 5000 nM.

With `CCn1cc(-c2nc3c(-c4ccc(CNC(=O)c5cc(C(C)(C)C)on5)c(F)c4)ccnc3[nH]2)cn1`, the IC50 is < 100 nM.

Consider `CC(C)(C)c1noc(C(=O)NCc2ccc(-c3ccnc4[nH]c(C5=CCNCC5)nc34)cc2F)n1`, for which the IC50 was < 100 nM.

Another test has as its target Tyrosine-protein kinase BTK (Homo sapiens, UniProt Q06187, C481S). As to the kind of experiment: Microfluidic Off-Chip Mobility Shift Assay Protocol for Potency Assessment Against BTK C481S Enzyme: The protocol below describes a microfluidic, off-chip mobility shift kinase assay to measure inherent potency of compounds against BTK C481S enzyme. The mechanics of the assay platform are described by the vendor (PerkinElmer, Hopkinton, Mass.) on their website at the following URL: http://caliperls.com.Briefly, 2.5× stocks of His-TEV-hsBTK(328-659)(C481S) from the Merck Serono Protein Purification Laboratory in Darmstadt, Germany (PCS, Q27/234), 1.6×ATP and appropriate KinKDR peptide substrate (FITC-AHA-[…]-NH2; Tufts University Core Facility custom synthesis) were prepared in kinase reaction buffer consisting of 25 mM MgCl2, 0.015% Brij-35 (30%), 100 mM HEPES, pH 7.5, and 10 mM DTT.5 uL of enzyme buffer and 7.5 uL of ATP/KinKDR peptide substrate mix were added to Matrix (#4315) 384-well, sterile, flat-bottom polypropylene plates (Thermo Fisher Scientific, Hudson, N.H.) with 125 nL of serially diluted compounds prepared in 100% DMSO, and incubated for 90 min. at 25° C. Following the incubation period, reactions were terminated by adding 65 uL quench buffer consisting of 100 mM HEPES, pH 7.5, 0.015% Brij-35 (30%), 0.277% Coating Reagent #3 (PerkinElmer, Mountain View, Calif.), 5% DMSO. Terminated reactions were monitored at −2 PSI, −3000 V/−700 Volts in a LabChip 3000 plate reader from Caliper Life Sciences, a PerkinElmer Company (Hopkinton, Mass.), and the activity was quantified by laser-induced fluorescence measuring the charge/mass difference between substrate and product resulting from peptide phosphorylation. IC50 and efficacy were determined by plotting log [Inhibitor] vs. % Activity in GeneData Screener (Basel, Switzerland).
As for `CC(C)(C)c1nc(C(=O)NCc2ccc(-c3ccnc4[nH]c(-c5cnn(C6COC6)c5)nc34)cc2F)no1`, the IC50 is < 100 nM.

Consider `CC(C)(C)c1nc(C(=O)NCc2ccc(-c3ccnc4[nH]c(-c5cnn(C6CCOCC6)c5)nc34)cc2F)no1`, for which the IC50 is < 100 nM.

For `Cn1cc(-c2nc3c(-c4cccc(CNC(=O)c5noc(C(C)(C)C)n5)c4)ccnc3[nH]2)cn1`, the IC50 is < 100 nM.

A word on the IC50: it is the concentration that inhibits the measured activity by half.

(Values after ChEMBL document CHEMBL5728678, “Heteroaryl compounds as BTK inhibitors and uses thereof” (2021).)
